Laboratory results: patent US12521364B2, “Composition for preventing or treating neuropathic pain, containing syringaresinol” (UNIVERSITY-INDUSTRY COOPERATION GROUP OF KYUNG HEE …, priority 2019, dated 2026)

What was measured:
[1] = tested on: iNOS; assay: Western blot of iNOS in BV2 cells with oxaliplatin-induced inflammatory response; format: cell-based
Method: (§1) BV2 cell lines (microglia) were cultured in Dulbecco's modified Eagle's medium (DMEM; GIBCO, Grand Island, NY, USA) containing 10% fetal bovine serum (FBS; GIBCO) and 1% penicillin in a 5% CO2 incubator (37° C.). […]
(§2) Thereafter, proteins were isolated from the cells of each treatment group. […] The isolated proteins were quantified for each subject by using the Bradford (Bio-rad, USA) method using bovine serum albumin (BSA, Sigma, USA), and then 20 μg of the proteins were separated by 10% sodium dodecyl sulfate—polyacrylamide gel electrophoresis (SDS-PAGE) and transferred to polyvinylidene difluoride (PVDF) membranes (membrane, Gendepot, UK). […] The protein identification and quantitative analysis were performed using an imaging system (ChemiDoc XRS+ System, Bio-Rad).
(§3) All of the results were analyzed using the SPSS 21.0 package (SPSS Inc., Chicago, USA), and the experimental results were presented as the mean±standard deviation values. Statistical significance was validated using one-way analysis of variance (ANOVA) and then analyzed by Fisher's LSD test, and the significance probability value (p-value) was recognized only when p<0.05 and p<0.01.

[2] = tested on: p-ERK MAPK; assay: Western blot of p-ERK in BV2 cells with oxaliplatin-induced inflammatory response; format: cell-based
Method: as §1, §2, §3

[3] = tested on: p-NF-κB; assay: Western blot of p-NF-κB in BV2 cells with oxaliplatin-induced inflammatory response; format: cell-based
Method: as §1, §2, §3

[4] = tested on: paclitaxel-induced neuropathic pain animal models; assay: Cold allodynia (acetone test) in paclitaxel-induced neuropathic pain animal models; format: in vivo, c57/bl6 male mice; conditions: 10 mg/kg oral, 1 hour after administration, day 14 after first paclitaxel injection, acetone to rear paws
Method: Paclitaxel (Sigma-Aldrich) dissolved in a 1:1 solution of Cremophor EL and ethanol at 6 mg/mL was diluted to a concentration of 0.2 mg/mL, and 2 mg/kg of the diluent was intraperitoneally administered to ten 6-week-old c57/bl6 male mice four times. Injections were conducted on days 0, 2, 4, and 6 at intervals of every other day. A significant pain was observed from about 10 days after the first injection. In the paclitaxel-induced neuropathic pain animal models, the response occurring after about 20 μL of acetone was applied to both rear paws of the animal models to cause cold allodynia was observed and recorded for about 15 seconds. The behaviors of withdrawal, shaking, and licking of the paws were observed and recorded. A total of three repeated trials were performed, and the average number of behaviors recorded was checked. On the 14th day after the first injection of paclitaxel, animal models showing a statistically significant level of pain were divided into a drug group administered 10 mg/kg of syringaresinol (syringaresinol, n=5) and a control group orally administered 0.06% Tween 80 (vehicle, n=5), and then were administered the corresponding drugs to thereby cause cold allodynia after 1 hour.

[5] = tested on: oxaliplatin-induced neuropathic pain animal models; assay: Cold allodynia (acetone test) in oxaliplatin-induced neuropathic pain animal models; format: in vivo, c57/bl6 male mice; conditions: 10 mg/kg oral, 1 hour after administration, day 3 after oxaliplatin injection, acetone to rear paws
Method: In the paclitaxel-induced neuropathic pain animal models, the response occurring after about 20 μL of acetone was applied to both rear paws of the animal models to cause cold allodynia was observed and recorded for about 15 seconds. The behaviors of withdrawal, shaking, and licking of the paws were observed and recorded. A total of three repeated trials were performed, and the average number of behaviors recorded was checked.
(§4) Oxaliplatin (Sigma-Aldrich) dissolved in a 5% glucose solution to 2 mg/mL was single-intraperitoneally administered at 6 mg/kg to twelve 5-week-old c57/bl6 male mice. Significant pain was observed from about 3 days after the first injection.
Cold allodynia was caused in the oxaliplatin-induced neuropathic pain animal models by way of the method in Example 2.
On the 3rd day after the oxaliplatin injection, animal models showing a statistically significant level of pain were divided into a drug group administered 10 mg/kg syringaresinol (syringaresinol, n=6) and a control group orally administered 0.06% Tween 80 (vehicle, n=6), and then were administered the corresponding drugs to thereby cause cold allodynia and mechanical allodynia after 1 hour.

[6] = tested on: oxaliplatin-induced neuropathic pain animal models; assay: Mechanical allodynia (von Frey filament) in oxaliplatin-induced neuropathic pain animal models; format: in vivo, c57/bl6 male mice; conditions: 10 mg/kg oral, 1 hour after administration, day 3 after oxaliplatin injection, 0.4 g von Frey filament
Method: as §4
The behavior of withdrawal to a stimulus using a 0.4 g von Frey filament (Touch test 3.61, Stoelting, USA), which causes mechanical allodynia in the oxaliplatin-induced neuropathic pain animal models, was recorded and observed. To measure the withdrawal response of the paws in the animal models, the animals were put in a transparent acrylic box (7 cm×10 cm) placed on a wire mesh with a grid size of 5 mm and given time to acclimate to the environment. After about 1 hour, the acclimation of the mice was checked, and the medial part of the affected paw was stimulated with the quantified von Frey filament through a wire mesh grid. A total of 10 stimulations sufficient to slightly bend the von Frey filament were given at intervals of 20 seconds, and the number of withdrawals was measured. […]

[7] = tested on: peripheral nerve injury (PNL)-induced neuropathic pain animal models; assay: Mechanical pain (von Frey filament) in peripheral nerve injury (partial sciatic nerve ligation, PNL)-induced neuropathic pain models; format: in vivo, c57/bl6 male mice; conditions: 10 mg/kg oral, PNL mice
Method: The behavior of withdrawal to a stimulus using a 0.4 g von Frey filament (Touch test 3.61, Stoelting, USA), which causes mechanical allodynia in the oxaliplatin-induced neuropathic pain animal models, was recorded and observed. To measure the withdrawal response of the paws in the animal models, the animals were put in a transparent acrylic box (7 cm×10 cm) placed on a wire mesh with a grid size of 5 mm and given time to acclimate to the environment. After about 1 hour, the acclimation of the mice was checked, and the medial part of the affected paw was stimulated with the quantified von Frey filament through a wire mesh grid. A total of 10 stimulations sufficient to slightly bend the von Frey filament were given at intervals of 20 seconds, and the number of withdrawals was measured.
After twelve 5-week-old c57/bl6 male mice were respiratory anesthetized with 2.5% isoflurane, the skin on the posterior side of the right hip joint was shaved and incised, and then the sciatic nerve between the biceps femoris was found and confirmed. Thereafter, the […] was penetrated and ligated by a 7 m/m (⅜) silk thread, and then the cut skin was sutured. […]

[8] = BV2 cells stimulated with 1 μg/mL oxaliplatin for 3 hours, versus normal control
[9] = BV2 cells, syringaresinol 10 μg/mL and 100 μg/mL for 1 hour, then 1 μg/mL oxaliplatin for 3 hours

Row | Structure (SMILES) | protein expression of iNOS [1, 8] | protein expression level of p-ERK MAPK [2, 8] | protein expression level of p-NF-κB [3, 8] | cold allodynia compared with the control group (vehicle) [4] | cold allodynia compared with the control group (vehicle) [5] | mechanical allodynia compared with the control group (vehicle) [6] | mechanical pain compared with the control group (vehicle) [7] | oxaliplatin-induced increase of iNOS protein expression [1, 9] | oxaliplatin-induced increase of p-ERK MAPK protein expression [2, 9] | oxaliplatin-induced increase of p-NF-κB protein expression [3, 9]
1 | O=C1[O][Pt]2([NH][C@@H]3CCCC[C@H]3[NH]2)[O]C1=O [oxaliplatin, reference compound] | significantly increased | significantly increased | significantly increased | – | – | – | – | – | – | –
2 | COc1cc(C2OCC3C(c4cc(OC)c(O)c(OC)c4)OCC23)cc(OC)c1O (stereo not shown) [syringaresinol] | – | – | – | mitigated | mitigated | mitigated | significantly mitigated | significantly inhibited | significantly inhibited | significantly inhibited
